Reference: publication PMC12645437, “Orthogonal IMiD-Degron Pairs Induce Selective Protein Degradation in Cells” (ACS Chemical Biology, 2025)

Tested on: library of 8380 IKZF3 degrons fused to EGFP in Jurkat cells
Test: Pooled mutant ZF degron library screen (FACS EGFPlow vs EGFP+, NGS), 18 h;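 for logFC: Log2 fold change of EGFPlow over EGFP+ representation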
Format: cell-based, human
Settings: for Log2FC: WT degron, residues 146/147/149/150/152/153/154/155/167: FQNQGASFL

O=C1CCC(N2C(=O)c3ccccc3C2=O)C(=O)N1 (stereo not shown) [Compound 1, thalidomide, reference compound]
Log2FC (listed as Thal): 1.13
Log2FC (listed as Thalidomide): 1.1337
logFC (degron residues 146/147/149/150/152/153/154/155/167: FADIGAAFL): -0.52
logFC (degron residues 146/147/149/150/152/153/154/155/167: FADIGAAFL, listed as A32): -0.5175
logFC (degron residues 146/147/149/150/152/153/154/155/167: FADIGACFL): -1.27
logFC (degron residues 146/147/149/150/152/153/154/155/167: FADIGACFL, listed as A32): -1.269
logFC (degron residues 146/147/149/150/152/153/154/155/167: FADIGADFL): -2.30
logFC (degron residues 146/147/149/150/152/153/154/155/167: FADIGADFL, listed as A32): -2.302
logFC (degron residues 146/147/149/150/152/153/154/155/167: FADIGAEFL): -1.72
logFC (degron residues 146/147/149/150/152/153/154/155/167: FADIGAEFL, listed as A32): -1.72
logFC (degron residues 146/147/149/150/152/153/154/155/167: FADIGAFFL): -2.34
logFC (degron residues 146/147/149/150/152/153/154/155/167: FADIGAGFL): -1.45
logFC (degron residues 146/147/149/150/152/153/154/155/167: FADIGAHFL): -1.89
logFC (degron residues 146/147/149/150/152/153/154/155/167: FADIGAIFL): -1.38
logFC (degron residues 146/147/149/150/152/153/154/155/167: FADIGAKFL): -0.77
logFC (degron residues 146/147/149/150/152/153/154/155/167: FADIGALFL): -1.99
logFC (degron residues 146/147/149/150/152/153/154/155/167: FADIGAMFL): -1.81
logFC (degron residues 146/147/149/150/152/153/154/155/167: FADIGANFL): -1.52
logFC (degron residues 146/147/149/150/152/153/154/155/167: FADIGAPFL): 0.38
logFC (degron residues 146/147/149/150/152/153/154/155/167: FADIGAQFL): -1.14
logFC (degron residues 146/147/149/150/152/153/154/155/167: FADIGARFL): -0.98
logFC (degron residues 146/147/149/150/152/153/154/155/167: FADIGASFL): -1.01
logFC (degron residues 146/147/149/150/152/153/154/155/167: FADIGATFL): -1.50
logFC (degron residues 146/147/149/150/152/153/154/155/167: FADIGAVFL): -1.28
logFC (degron residues 146/147/149/150/152/153/154/155/167: FADIGAWFL): -2.70
logFC (degron residues 146/147/149/150/152/153/154/155/167: FADIGAYFL): -1.46
logFC (degron residues 146/147/149/150/152/153/154/155/167: FADQGAAFL): -3.14
logFC (degron residues 146/147/149/150/152/153/154/155/167: FADQGACFL): -2.81
logFC (degron residues 146/147/149/150/152/153/154/155/167: FADQGADFL): -2.96
logFC (degron residues 146/147/149/150/152/153/154/155/167: FADQGAEFL): -3.47
logFC (degron residues 146/147/149/150/152/153/154/155/167: FADQGAFFL): -3.47
logFC (degron residues 146/147/149/150/152/153/154/155/167: FADQGAGFL): -2.45
logFC (degron residues 146/147/149/150/152/153/154/155/167: FADQGAHFL): -3.40
logFC (degron residues 146/147/149/150/152/153/154/155/167: FADQGAIFL): -2.61
logFC (degron residues 146/147/149/150/152/153/154/155/167: FADQGAKFL): -2.20
logFC (degron residues 146/147/149/150/152/153/154/155/167: FADQGALFL): -2.67
logFC (degron residues 146/147/149/150/152/153/154/155/167: FADQGAMFL): -2.56
logFC (degron residues 146/147/149/150/152/153/154/155/167: FADQGANFL): -3.17
logFC (degron residues 146/147/149/150/152/153/154/155/167: FADQGAPFL): -2.41
logFC (degron residues 146/147/149/150/152/153/154/155/167: FADQGAQFL): -3.13
logFC (degron residues 146/147/149/150/152/153/154/155/167: FADQGARFL): -2.69
logFC (degron residues 146/147/149/150/152/153/154/155/167: FADQGASFL): -3.41
logFC (degron residues 146/147/149/150/152/153/154/155/167: FADQGATFL): -2.79
logFC (degron residues 146/147/149/150/152/153/154/155/167: FADQGAVFL): -2.29
logFC (degron residues 146/147/149/150/152/153/154/155/167: FADQGAWFL): -2.86
logFC (degron residues 146/147/149/150/152/153/154/155/167: FADQGAYFL): -2.43
logFC (degron residues 146/147/149/150/152/153/154/155/167: FADVGAAFL): -1.13
logFC (degron residues 146/147/149/150/152/153/154/155/167: FADVGACFL): -2.56
logFC (degron residues 146/147/149/150/152/153/154/155/167: FADVGADFL): -2.99
logFC (degron residues 146/147/149/150/152/153/154/155/167: FADVGAEFL): -2.38
logFC (degron residues 146/147/149/150/152/153/154/155/167: FADVGAFFL): -1.98
logFC (degron residues 146/147/149/150/152/153/154/155/167: FADVGAGFL): -2.06
